From patent US20210380606A1, “5-AZAINDAZOLE DERIVATIVES AS ADENOSINE RECEPTOR ANTAGONISTS” (Merck Patent GmbH, priority 2018, published 2021)

What was measured:
human A2B receptors = biological target: T1, human A2B receptors (Homo sapiens, UniProt P29275); assay: Functional human A2B receptor activity, recombinant HEK293 cells, cAMP (HTRF); assay type: cell-based; conditions: read-out: A2B (Category)
T1 construct: expressed in transfected cells; host or cells: HEK293
T1 sequence (P29275 1-332): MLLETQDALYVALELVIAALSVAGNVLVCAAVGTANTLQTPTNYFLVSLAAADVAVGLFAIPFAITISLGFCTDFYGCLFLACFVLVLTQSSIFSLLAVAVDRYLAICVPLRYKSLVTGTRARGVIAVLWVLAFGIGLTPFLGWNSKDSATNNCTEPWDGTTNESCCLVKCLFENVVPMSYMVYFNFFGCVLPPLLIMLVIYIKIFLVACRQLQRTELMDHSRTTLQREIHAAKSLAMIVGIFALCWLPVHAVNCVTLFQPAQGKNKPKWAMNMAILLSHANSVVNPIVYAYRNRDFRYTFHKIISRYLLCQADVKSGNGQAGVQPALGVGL
Experimental: (§1) The functional activities of human A2A and A2B receptors were determined by quantification of cAMP, being the second messenger for adenosine receptors.
(§2) After a 15 min incubation, HTRF reagents (cAMP dynamic 2, Cis Bio) were added and the cellular cAMP levels were determined using the ENVISION (Perkin Elmer) plate reader.

human A2A receptors = biological target: T2, human A2A receptors (Homo sapiens, UniProt P29274); assay: Functional human A2A receptor activity, recombinant HEK293 cells, cAMP (HTRF); assay type: cell-based; conditions: read-out: A2A (Category)
T2 construct: expressed in transfected cells; host or cells: HEK293
Experimental: as §1, §2

T2 sequence (P29274 whole entry): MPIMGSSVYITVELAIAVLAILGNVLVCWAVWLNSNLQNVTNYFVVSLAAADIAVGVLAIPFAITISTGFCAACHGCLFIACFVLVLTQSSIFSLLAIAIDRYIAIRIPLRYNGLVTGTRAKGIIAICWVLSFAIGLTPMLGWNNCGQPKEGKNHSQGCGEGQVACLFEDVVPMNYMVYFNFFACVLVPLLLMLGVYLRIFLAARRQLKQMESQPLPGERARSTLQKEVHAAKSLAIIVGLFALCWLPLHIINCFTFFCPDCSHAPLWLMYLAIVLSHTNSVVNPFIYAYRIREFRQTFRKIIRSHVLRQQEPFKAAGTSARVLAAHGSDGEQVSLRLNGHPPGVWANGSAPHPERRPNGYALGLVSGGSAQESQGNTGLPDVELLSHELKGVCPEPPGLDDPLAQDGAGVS

Row | IC50 (human A2B receptors) [nM] | IC50 (human A2A receptors) [nM] | Compound
1 | < 1000 | < 100 | O=C(c1cc2c(cn1)c(-c1cnc3cc(F)c(Cl)cn13)nn2CC(F)(F)F)N1CCCCCC1 [Compound 74, Azepan-1-yl-[3-(6-chloro-7-fluoro-imidazo[1,2-a]pyridin-3-yl)-1-(2,2,2-trifluoro-ethyl)-1H-pyrazolo[4,3-c]pyridin-6-yl]-methanone]
2 | < 1000 | < 100 | O=C(c1cc2c(cn1)c(-c1cnc3ccc(F)cn13)nn2CC(F)(F)F)N1CCCOCC1 [Compound 80, [3-(6-Fluoro-imidazo[1,2-a]pyridin-3-yl)-1-(2,2,2-trifluoro-ethyl)-1H-pyrazolo[4,3-c]pyridin-6-yl]-1,4-oxazepan-4-yl-methanone]
3 | < 1000 | < 100 | N#Cc1ccc2ncc(-c3nn(CC(F)(F)F)c4cc(C(=O)N5CCCOCC5)ncc34)n2c1 [Compound 81, 3-[6-(1,4-Oxazepane-4-carbonyl)-1-(2,2,2-trifluoro-ethyl)-1H-pyrazolo[4,3-c]pyridin-3-yl]-imidazo[1,2-a]pyridine-6-carbonitrile]
4 | < 1000 | < 100 | O=C(c1cc2c(cn1)c(-c1cnc3ccc(F)cn13)nn2CC(F)(F)F)N1CC2CCC(C1)O2 [Compound 82, [3-(6-Fluoro-imidazo[1,2-a]pyridin-3-yl)-1-(2,2,2-trifluoro-ethyl)-1H-pyrazolo[4,3-c]pyridin-6-yl]-(8-oxa-3-aza-bicyclo[3.2.1]oct-3-yl)-methanone]
5 | < 1000 | < 100 | O=C(c1cc2c(cn1)c(-c1cnc3c(F)cc(F)cn13)nn2CC(F)(F)F)N1CC2CCC(C1)O2 [Compound 83, [3-(6,8-Difluoro-imidazo[1,2-a]pyridin-3-yl)-1-(2,2,2-trifluoro-ethyl)-1H-pyrazolo[4,3c]pyridin-6-yl]-(8-oxa-3-aza-bicyclo[3.2.1]oct-3-yl)-methanone]
6 | < 100 | < 100 | O=C(c1cc2c(cn1)c(-c1cnn3ccccc13)nn2CC(F)(F)F)N1CCCCCC1 [Compound 89, Azepan-1-yl-[3-pyrazolo[1,5-a]pyridin-3-yl-1-(2,2,2-trifluoro-ethyl)-1H-pyrazolo[4,3-c]pyridin-6-yl]-methanone hydrochoride]
7 | < 100 | < 100 | O=C(c1cc2c(cn1)c(-c1coc3ccccc13)nn2CC(F)(F)F)N1CCCCCC1 [Compound 90, Azepan-1-yl-[3-benzofuran-3-yl-1-(2,2,2-trifluoro-ethyl)-1H-pyrazolo[4,3-c]pyridin-6-yl]-methanone]
8 | < 100 | < 100 | O=C(c1cc2c(cn1)c(-c1c[nH]c3ccccc13)nn2CC(F)(F)F)N1CCCCCC1 [Compound 91, Azepan-1-yl-[3-(1H-indol-3-yl)-1-(2,2,2-trifluoro-ethyl)-1H-pyrazolo[4,3-c]pyridin-6-yl]-methanone]
9 | < 1000 | < 100 | O=C(c1cc2c(cn1)c(-c1c[nH]c3ncccc13)nn2CC(F)(F)F)N1CCCCCC1 [Compound 92, Azepan-1-yl-[3-(1H-pyrrolo[2,3-b]pyridin-3-yl)-1-(2,2,2-trifluoro-ethyl)-1H-pyrazolo[4,3-c]pyridin-6-yl]-methanone]
10 | < 100 | < 100 | O=C(c1cc2c(cn1)c(-c1coc3ccccc13)nn2CC(F)(F)F)N1CCCOCC1 [Compound 94, [3-Benzofuran-3-yl-1-(2,2,2-trifluoro-ethyl)-1H-pyrazolo[4,3-c]pyridine-6-yl]-1,4-oxazepan-4-yl-methanone]
11 | < 1000 | < 100 | O=C(c1cc2c(cn1)c(-c1cnn3ccccc13)nn2CC(F)(F)F)N1CCCOCC1 [Compound 95, 1,4-Oxazepan-4-yl-[3-pyrazolo[1,5-a]pyridine-3-yl-1-(2,2,2-trifluoro-ethyl)-1H-pyrazolo[4,3-c]pyridine-6-yl]-methanone]
12 | < 1000 | < 100 | O=C(c1cc2c(cn1)c(-c1c[nH]c3ccccc13)nn2CC(F)(F)F)N1CCCOCC1 [Compound 96, [3-(1H-Indol-3-yl)-1-(2,2,2-trifluoro-ethyl)-1H-pyrazolo[4,3-c]pyridine-6-yl]-1,4-oxazepan-4-yl-methanone]
13 | < 1000 | < 100 | O=C(c1cc2c(cn1)c(-c1cnn3ccccc13)nn2CC(F)(F)F)N1CC2CCC(C1)O2 [Compound 99, (8-Oxa-3-aza-bicyclo[3.2.1]oct-3-yl)-[3-pyrazolo[1,5-a]pyridin-3-yl-1-(2,2,2-trifluoro-ethyl)-1H-pyrazolo[4,3-c]pyridin-6-yl]-methanone]
14 | < 100 | < 100 | O=C(c1cc2c(cn1)c(-c1coc3ccccc13)nn2CC(F)(F)F)N1CC2CCC(C1)O2 [Compound 100, [3-Benzofuran-3-yl-1-(2,2,2-trifluoro-ethyl)-1H-pyrazolo[4,3-c]pyridin-6-yl]-(8-oxa-3-aza-bicyclo[3.2.1]oct-3-yl)-methanone]
15 | < 100 | < 100 | O=C(c1cc2c(cn1)c(-c1coc3ccccc13)nn2CC(F)(F)F)N1CC2CCC(C2)C1 [Compound 101, (3-Aza-bicyclo[3.2.1]oct-3-yl)-[3-benzofuran-3-yl-1-(2,2,2-trifluoro-ethyl)-1H-pyrazolo[4,3-c]pyridin-6-yl]-methanone]
16 | < 100 | < 100 | O=C(c1cc2c(cn1)c(-c1cnn3ccccc13)nn2CC(F)(F)F)N1CC2CCC(C2)C1 [Compound 102, (3-Aza-bicyclo[3.2.1]oct-3-yl)-[3-pyrazolo[1,5-a]pyridin-3-yl-1-(2,2,2-trifluoro-ethyl)-1H-pyrazolo[4,3-c]pyridin-6-yl]-methanone]
17 | < 1000 | < 100 | O=C(c1cc2c(cn1)c(-c1coc3ccccc13)nn2CC(F)F)N1CCCOCC1 [Compound 103, [3-Benzofuran-3-yl-1-(2,2-difluoro-ethyl)-1H-pyrazolo[4,3-c]pyridin-6-yl]-1,4-oxazepan-4-yl-methanone]
18 | < 1000 | < 100 | O=C(c1cc2c(cn1)c(-c1coc3ccccc13)nn2CCF)N1CCCOCC1 [Compound 104, [3-Benzofuran-3-yl-1-(2-fluoro-ethyl)-1H-pyrazolo[4,3-c]pyridin-6-yl]-1,4-oxazepan-4-yl-methanone]
19 | < 1000 | < 100 | NC(=O)Cn1nc(-c2coc3ccccc23)c2cnc(C(=O)N3CCCOCC3)cc21 [Compound 105, 2-[3-Benzofuran-3-yl-6-(1,4-oxazepane-4-carbonyl)-pyrazolo[4,3-c]pyridin-1-yl]-acetamide]
20 | < 1000 | < 100 | CCCn1nc(-c2coc3ccccc23)c2cnc(C(=O)N3CCCOCC3)cc21 [Compound 106, (3-Benzofuran-3-yl-1-propyl-1H-pyrazolo[4,3-c]pyridin-6-yl)-1,4-oxazepan-4-yl-methanone]
21 | < 100 | < 100 | CS(=O)(=O)Cn1nc(-c2coc3ccccc23)c2cnc(C(=O)N3CC4CCC(C3)O4)cc21 [Compound 107, (3-Benzofuran-3-yl-1-methanesulfonylmethyl-1H-pyrazolo[4,3-c]pyridine-6-yl)-(8-oxa-3-aza-bicyclo[3.2.1]oct-3-yl)-methanone]
22 | < 1000 | < 100 | CS(=O)(=O)Cn1nc(-c2cnn3ccccc23)c2cnc(C(=O)N3CC4CCC(C3)O4)cc21 [Compound 108, (1-Methanesulfonylmethyl-3-pyrazolo[1,5-a]pyridine-3-yl-1H-pyrazolo[4,3-c]pyridine-6-yl)-(8-oxa-3-aza-bicyclo[3.2.1]oct-3-yl)-methanone]
23 | < 100 | < 100 | CS(=O)(=O)Cn1nc(-c2coc3ccc(F)cc23)c2cnc(C(=O)N3CCCOCC3)cc21 [Compound 110, [3-(5-fluorobenzofuran-3-yl)-1-(methylsulfonylmethyl)pyrazolo[4,3-c]pyridin-6-yl]-(1,4-oxazepan-4-yl)methanone]
24 | < 100 | < 100 | CS(=O)(=O)Cn1nc(-c2coc3ccc(F)cc23)c2cnc(C(=O)N3CC4CCC(C3)O4)cc21 [Compound 111, [3-(5-fluorobenzofuran-3-yl)-1-(methylsulfonylmethyl)pyrazolo[4,3-c]-pyridin-6-yl]-(8-oxa-3-azabicyclo[3.2.1]octan-3-yl)methanone]

Row | Compound | IC50 (human A2B receptors) [nM] | IC50 (human A2A receptors) [nM]
25 | O=C(c1cc2c(cn1)c(-c1cnc3ccc(F)cn13)nn2CC(F)(F)F)N1[C@@H]2CC[C@H]1C[C@@H](O)C2 [Compound 86, [3-(6-fluoroimidazo[1,2-a]pyridin-3-yl)-1-(2,2,2-trifluoroethyl)pyrazolo[4,3-c]pyridin-6-yl]-(3-endo-hydroxy-8-azabicyclo[3.2.1]octan-8-yl)methanone] | < 100 | < 100
26 | O=C(c1cc2c(cn1)c(-c1cnc3ccccn13)nn2CC(F)(F)F)N1[C@@H]2CC[C@H]1C[C@@H](O)C2 [Compound 87, [3-(imidazo[1,2-a]pyridin-3-yl)-1-(2,2,2-trifluoroethyl)pyrazolo[4,3-c]pyridin-6-yl]-(3-endo-hydroxy-8-azabicyclo[3.2.1]octan-8-yl)methanone] | < 1000 | < 100
27 | O=C(c1cc2c(cn1)c(-c1cnc3ccc(O)cn13)nn2CC(F)(F)F)N1[C@@H]2CC[C@H]1C[C@@H](O)C2 [Compound 88, (3-endo-hydroxy-8-azabicyclo[3.2.1]octan-8-yl)-[3-(6-hydroxyimidazo[1,2-a]pyridin-3-yl)-1-(2,2,2-trifluoroethyl)pyrazolo[4,3-c]pyridin-6-yl]methanone] | < 1000 | < 100
